Test results as given in ChEMBL document CHEMBL1201862, “PubChem BioAssay data set” (2004).
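Grown in 96-well plates, cells were treated for 48 hours with each compound at five concentrations. Insufficient inhibition: endpoint recorded as highest concentration tested. GI50 = concentration required for 50% inhibition of growth.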 Calls of active or inactive are those of the source. No stated cut-off is given here; in the data, active = GI50 up to about 1.1 µM and inactive = higher.

What was measured:
Experiment in all cases: NCI tumour cell line growth inhibition, 48 h
HOP-62 = system: HOP-62
HT-29 = system: HT-29
SNB-19 = system: SNB-19
A498 = system: A498
NCI-H460 = system: NCI-H460
UO-31 = system: UO-31
HCT-116 = system: HCT-116
UACC-257 = system: UACC-257
786-0 = system: 786-0
SK-MEL-28 = system: SK-MEL-28
DU-145 = system: DU-145
IGROV-1 = system: IGROV-1
EKVX = system: EKVX
NCI-H522 = system: NCI-H522
MDA-MB-435 = system: MDA-MB-435
MDA-N = system: MDA-N
A549 = system: A549
HOP-92 = system: HOP-92
NCI/ADR-RES = system: NCI/ADR-RES

Measured: GI50

Cc1cc2ncc3c(=O)n(NS(=O)(=O)c4ccc(N)cc4)ccc3n2n1
inactive: HOP-62 > 100 µM | HT-29 > 100 µM | SNB-19 > 100 µM | A498 70.8 µM | NCI-H460 > 100 µM | UO-31 > 100 µM | HCT-116 > 100 µM | UACC-257 > 100 µM | 786-0 > 100 µM | SK-MEL-28 > 100 µM | DU-145 > 100 µM | IGROV-1 > 100 µM | EKVX > 100 µM | NCI-H522 > 100 µM | MDA-MB-435 > 100 µM | MDA-N > 100 µM | A549 > 100 µM | HOP-92 54.2 µM

N#Cc1nc(CCCCCN2C(=O)c3ccccc3C2=O)oc1N
inactive: HOP-62 > 100 µM | HT-29 > 100 µM | SNB-19 > 100 µM | NCI-H460 > 100 µM | UO-31 94.4 µM | HCT-116 > 100 µM | UACC-257 > 100 µM | 786-0 > 100 µM | SK-MEL-28 > 100 µM | DU-145 > 100 µM | NCI/ADR-RES > 100 µM | IGROV-1 > 100 µM | EKVX > 100 µM | NCI-H522 4.84 µM | MDA-MB-435 > 100 µM | MDA-N > 100 µM | A549 > 100 µM

N=C1/C(=C/c2ccco2)C(=O)N=C2SC=NN12
inactive: HOP-62 > 100 µM | HT-29 > 100 µM | SNB-19 > 100 µM | NCI-H460 > 100 µM | UO-31 > 100 µM | HCT-116 > 100 µM | UACC-257 > 100 µM | 786-0 > 100 µM | SK-MEL-28 > 100 µM | DU-145 > 100 µM | NCI/ADR-RES > 100 µM | IGROV-1 > 100 µM | EKVX > 100 µM | NCI-H522 > 100 µM | MDA-MB-435 > 100 µM | MDA-N > 100 µM | A549 > 100 µM | HOP-92 > 100 µM

COC(=O)[C@@]12CCCC(=O)[C@@H]1[C@H]1CCC[C@H]12
inactive: HOP-62 > 100 µM | HT-29 > 100 µM | SNB-19 > 100 µM | NCI-H460 > 100 µM | UO-31 > 100 µM | HCT-116 > 100 µM | UACC-257 > 100 µM | 786-0 > 100 µM | SK-MEL-28 > 100 µM | DU-145 > 100 µM | NCI/ADR-RES > 100 µM | IGROV-1 > 100 µM | EKVX > 100 µM | NCI-H522 > 100 µM | MDA-MB-435 > 100 µM | MDA-N > 100 µM | A549 > 100 µM | HOP-92 > 100 µM

CCCCOP(=O)(OCCCC)C(NS(=O)(=O)c1ccccc1)(C(=O)OCC)C(F)(F)F (configuration not stated)
inactive: HOP-62 22.7 µM | HT-29 40 µM | SNB-19 29.2 µM | A498 34.5 µM | NCI-H460 37.6 µM | UO-31 > 100 µM | HCT-116 27.4 µM | UACC-257 31.9 µM | 786-0 33.3 µM | SK-MEL-28 34.1 µM | DU-145 45.3 µM | NCI/ADR-RES 26 µM | IGROV-1 23.3 µM | EKVX 30.1 µM | MDA-MB-435 29.5 µM | MDA-N 37.2 µM | A549 42.8 µM | HOP-92 23.8 µM

Cc1cc(C)c(OC(=O)Nc2cccc3ccccc23)c(-c2ccccc2)c1
inactive: HOP-62 65.8 µM | HT-29 43.2 µM | NCI-H460 47.9 µM | UO-31 7.52 µM | HCT-116 34.9 µM | 786-0 50.5 µM | SK-MEL-28 31.3 µM | DU-145 31.9 µM | NCI/ADR-RES 26.9 µM | IGROV-1 36.5 µM | EKVX 38.3 µM | MDA-MB-435 30.1 µM | MDA-N 29 µM | A549 32.6 µM | HOP-92 26.1 µM

CO/C(=N\N=C\c1ccc(Cl)cc1Cl)c1ccncc1
inactive: HOP-62 > 10 µM | HT-29 > 10 µM | SNB-19 > 10 µM | NCI-H460 > 10 µM | UO-31 > 10 µM | HCT-116 > 10 µM | UACC-257 > 10 µM | 786-0 > 10 µM | DU-145 > 10 µM | NCI/ADR-RES > 10 µM | EKVX > 10 µM | NCI-H522 > 10 µM | MDA-MB-435 3.66 µM | MDA-N 4.51 µM | A549 > 10 µM | HOP-92 > 10 µM

CO/N=C(\C(=O)Nn1cn[n+](CC(=O)[O-])c1)c1csc(N)n1
inactive: HOP-62 > 10 µM | HT-29 > 10 µM | NCI-H460 > 10 µM | HCT-116 > 10 µM | UACC-257 > 10 µM | 786-0 > 10 µM | SK-MEL-28 > 10 µM | DU-145 > 10 µM | IGROV-1 > 10 µM | EKVX > 10 µM | MDA-N > 10 µM | A549 > 10 µM | HOP-92 > 10 µM

NNC(=O)CCSc1ccccc1
inactive: HOP-62 > 100 µM | HT-29 > 100 µM | SNB-19 > 100 µM | A498 > 100 µM | NCI-H460 > 100 µM | UO-31 > 100 µM | HCT-116 > 100 µM | UACC-257 > 100 µM | 786-0 > 100 µM | SK-MEL-28 > 100 µM | DU-145 > 100 µM | NCI/ADR-RES > 100 µM | IGROV-1 > 100 µM | EKVX > 100 µM | NCI-H522 > 100 µM | MDA-MB-435 > 100 µM | MDA-N > 100 µM | A549 > 100 µM

CC(=O)OCC1OC(SC2=N/C(=C\c3cc4c(=O)c5ccccc5sc4s3)C(=O)N2c2ccccc2)C(OC(C)=O)C(OC(C)=O)C1OC(C)=O (configuration not stated)
inactive: HOP-62 > 100 µM | HT-29 > 100 µM | SNB-19 40.4 µM | A498 > 100 µM | NCI-H460 83.2 µM | UO-31 > 100 µM | HCT-116 37.6 µM | UACC-257 > 100 µM | 786-0 > 100 µM | SK-MEL-28 > 100 µM | DU-145 > 100 µM | NCI/ADR-RES > 100 µM | IGROV-1 > 100 µM | EKVX 65 µM | NCI-H522 > 100 µM | MDA-MB-435 > 100 µM | MDA-N > 100 µM

CC(C)(/N=N/C(C)(C)C1=NCCN1)C1=NCCN1
inactive: HOP-62 > 100 µM | HT-29 > 100 µM | SNB-19 > 100 µM | A498 > 100 µM | NCI-H460 > 100 µM | UO-31 > 74 µM | HCT-116 > 100 µM | UACC-257 > 100 µM | 786-0 > 71.4 µM | SK-MEL-28 > 100 µM | DU-145 > 100 µM | NCI/ADR-RES > 100 µM | IGROV-1 > 100 µM | EKVX > 100 µM | MDA-MB-435 > 100 µM | MDA-N > 100 µM

CC(C)(Oc1ccc(Cl)cc1)C(=O)N(C(=O)N1CCCCC1)c1ccccc1
inactive: HT-29 8.34 µM | SNB-19 16.8 µM | A498 17 µM | UO-31 10.8 µM | HCT-116 5.32 µM | 786-0 13.4 µM | SK-MEL-28 15.2 µM | DU-145 14.7 µM | NCI/ADR-RES 14.5 µM | IGROV-1 5.09 µM | EKVX 2.45 µM | MDA-MB-435 16 µM | MDA-N 24.5 µM
